Assay results taken from patent publication US9763961B2, “Compositions that modulate the activity of estrogen receptors and estrogen-related receptors and methods for use” (CITY OF HOPE, priority 2005, dated 2017).

How the values were obtained:
aromatase in HepG2 cells = experiment: In-cell aromatase assay in HepG2 cells; type: cell-based; settings: 24 h, FIG. 6C
Protocol: (§1) To evaluate the effect of chalcones on aromatase activity, we performed both in vitro assay and in-cell assay with chalcones. […] In addition, MCF-7 aro cells, which are stable aromatase-expressing breast cancer cell line, were incubated with chalcones.
(§2) Referring to FIG. 6, the effect of Compound No. 1-9 on aromatase activity was investigated by both in vitro inhibition assay (A) and in-cell aromatase assay (B; MCF-7 aro cells, C; HepG2 cells, D; SK-BR-3 cells). Referring to FIG. 6A, aromatase inhibition study with Compound No. 1-9 was performed on a human placental microsomal aromatase preparation using the assay procedures described in (9). Referring to FIG. 6B, MCF-7 aro cells, which are stable aromatase-expressing cell line generated in our laboratory (10), were incubated with 10 μM of Compound No. 1-9. After 24 h incubation, aromatase activity was measured by [3H] H20 release method. HepG2 cells, as shown in FIG. 6C and SK-BR-3 cells as shown in FIG. 6D were also incubated with Compound No. 1-9 for 24 h, and aromatase activities were measured. Values represent the mean±SD.

ERRγ = biological target: T1, ERRγ (Homo sapiens, UniProt P62508); experiment: Transient transfection luciferase assay with pSG5-ERRg and SF1-SV40 reporter in HeLa cells; type: cell-based; settings: for IC50: HeLa cells, 24 h, average of at least two experiments; for Antagonistic properties on ERRg (in words): transient transfection
T1 construct: expressed in transfected cells; host or cells: HeLa
T1 sequence (P62508 1-458): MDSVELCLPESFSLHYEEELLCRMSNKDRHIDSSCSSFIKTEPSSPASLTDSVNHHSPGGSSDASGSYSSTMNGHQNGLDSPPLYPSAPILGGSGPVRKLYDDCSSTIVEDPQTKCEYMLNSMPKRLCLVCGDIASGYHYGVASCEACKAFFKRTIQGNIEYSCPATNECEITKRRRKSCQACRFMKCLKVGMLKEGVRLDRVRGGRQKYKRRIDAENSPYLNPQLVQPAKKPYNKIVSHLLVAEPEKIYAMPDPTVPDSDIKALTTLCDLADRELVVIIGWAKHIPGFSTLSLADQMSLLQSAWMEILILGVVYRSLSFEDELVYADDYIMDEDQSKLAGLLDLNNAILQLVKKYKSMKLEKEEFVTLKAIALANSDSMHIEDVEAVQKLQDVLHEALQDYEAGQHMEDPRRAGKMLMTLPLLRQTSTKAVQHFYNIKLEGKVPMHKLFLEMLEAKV

[1] = tested on: ERRα with coactivators GRIP-1 and PGC-1a; experiment: Coactivator (GRIP-1, PGC-1a)-induced ERRα activity, Gal4-TK-Luc cotransfection in HeLa cells; type: cell-based; settings: GRIP-1 and PGC-1a cotransfection, FIG. 3
Source text: To further confirm the antagonism of chalcones, the effect of Compound No. 1-9 on the interaction between ERRα and coactivators (GRIP-1 and PGC-1a) were investigated. HeLa cells were cotransfected with GAL4-binding site containing luciferase reporter and the expression plasmids for ERRα, GRIP-1 and PGC-1a. The ERRα activity was induced 5-fold and 13-fold by cotransfection with GRIP-1 and PGC-1 a, respectively.
Referring to FIG. 3, cotransfection experiments with GAL4-binding site containing luciferase reporter (Gal4-TK-Luc; 0.5 μg) and the expression plasmids for ERRα (pM-ERRα LBD; 0.5 μg), GRIP-1 (pSG5-GRIP-1; 0.5 μg) and PGC-1a(pSG5-PGC-1α; 0.25 μg) were performed in HeLa cells. Values represent the mean±SD.

ERα = biological target: T2, ERα (Homo sapiens, UniProt P03372); experiment: Transient transfection luciferase assay with pSG5-ERa and ERE-SV40 reporter in HeLa cells, with 100 pM estradiol; type: cell-based; settings: for IC50: HeLa cells, in the presence of 100 pM of estradiol, 24 h; for Antagonistic properties on ERa (in words): transient transfection
T2 construct: expressed in transfected cells; host or cells: HeLa
T2 sequence (P03372 1-595): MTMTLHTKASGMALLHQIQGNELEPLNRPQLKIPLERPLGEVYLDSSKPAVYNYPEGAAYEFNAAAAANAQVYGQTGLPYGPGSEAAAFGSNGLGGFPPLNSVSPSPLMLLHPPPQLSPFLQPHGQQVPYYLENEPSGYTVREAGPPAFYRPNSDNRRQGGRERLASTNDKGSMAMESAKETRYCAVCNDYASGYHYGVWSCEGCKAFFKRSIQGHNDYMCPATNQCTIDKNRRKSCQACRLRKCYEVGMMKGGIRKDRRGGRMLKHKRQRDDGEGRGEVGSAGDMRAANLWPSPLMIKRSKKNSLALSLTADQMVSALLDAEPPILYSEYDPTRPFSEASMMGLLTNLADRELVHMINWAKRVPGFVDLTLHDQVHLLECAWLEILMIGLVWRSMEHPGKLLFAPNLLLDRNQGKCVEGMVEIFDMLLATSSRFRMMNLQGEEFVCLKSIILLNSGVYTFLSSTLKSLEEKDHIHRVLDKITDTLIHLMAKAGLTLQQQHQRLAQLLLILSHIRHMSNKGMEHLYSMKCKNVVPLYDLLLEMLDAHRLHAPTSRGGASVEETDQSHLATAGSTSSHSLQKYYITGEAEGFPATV

[2] = tested on: aromatase in SK-BR-3 cells; experiment: In-cell aromatase assay in SK-BR-3 cells; type: cell-based; settings: 24 h, FIG. 6D
Protocol: as §1, §2

[3] = biological target: T3, aromatase in MCF-7 aro cells (Homo sapiens, UniProt P11511); experiment: In-cell aromatase assay ([3H] H2O release) in MCF-7 aro cells; type: cell-based; settings: 10 μM, 24 h, FIG. 6B
T3 construct: expressed in transfected cells
T3 sequence (P11511 1-503): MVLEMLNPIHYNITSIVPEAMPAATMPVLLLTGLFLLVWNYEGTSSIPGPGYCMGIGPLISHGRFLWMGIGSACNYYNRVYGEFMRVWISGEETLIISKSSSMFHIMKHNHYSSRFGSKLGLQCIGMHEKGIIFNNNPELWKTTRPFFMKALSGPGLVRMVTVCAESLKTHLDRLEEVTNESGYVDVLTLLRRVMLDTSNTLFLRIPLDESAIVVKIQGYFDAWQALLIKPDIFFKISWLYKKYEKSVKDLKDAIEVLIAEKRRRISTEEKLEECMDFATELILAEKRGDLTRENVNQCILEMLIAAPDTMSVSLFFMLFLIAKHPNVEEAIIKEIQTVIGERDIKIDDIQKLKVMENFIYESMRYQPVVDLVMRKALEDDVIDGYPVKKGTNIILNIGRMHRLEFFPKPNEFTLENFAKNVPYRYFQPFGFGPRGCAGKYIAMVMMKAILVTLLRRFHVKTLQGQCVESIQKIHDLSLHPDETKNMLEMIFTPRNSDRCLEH
Protocol: as §1, §2

[4] = biological target: T4, human placental microsomal aromatase (Homo sapiens, UniProt P11511); experiment: In vitro aromatase inhibition assay on human placental microsomal aromatase preparation; type: biochemical; settings: increasing concentrations (200 pM-200 mM), FIG. 6A
T4 construct: performed on a human placental microsomal aromatase preparation; from tissue; host or cells: human placenta, microsomes
T4 sequence (P11511 1-503): T3 sequence (P11511 1-503)
Protocol: as §1, §2

Row | SMILES | Effect on aromatase activity, HepG2 cells (aromatase in HepG2 cells) | IC50 (ERRγ) [µM] | Antagonistic properties on ERRg (in words) (ERRγ) | Effect on coactivator-induced ERRα activity [1] | IC50 (ERα) [µM] | Antagonistic properties on ERa (in words) (ERα) | Effect on aromatase activity, SK-BR-3 cells [2] | Effect on aromatase activity, in-cell assay, MCF-7 aro cells [3] | Effect on aromatase activity, in vitro assay [4]
1 | COc1cccc(/C=C/C(=O)c2ccc(O)cc2O)c1OC [Compound No. 1-9, 2′,4′-Dihydroxy-2,3-dimethoxychalcone] | inhibited aromatase activity in a dose-dependent manner | 8 | showed antagonistic properties | suppressed the coactivator-induced ERRα activity in a dose-dependent manner | 3.3 | showed antagonistic properties | inhibited aromatase activity in a dose-dependent manner | did not inhibit aromatase activity | did not inhibit aromatase activity
2 | O=C(/C=C/c1ccccc1O)c1ccc(O)cc1O [Compound No. 7-5, 2,2′,4′-Trihydroxychalcone] | – | 3.7 | showed antagonistic properties | – | 3.7 | showed antagonistic properties | – | – | –
